Patent publication US7132261B2, “Orphan receptor” (Karo Bio AB, priority 1995, dated 2006)
Where two headings read alike, the source gives them in different places.

Experiments:
clone 29 protein (rERβ) [1] = molecular target: T1, clone 29 protein (rERβ) (Rattus norvegicus, UniProt Q62986); test: Transactivation analysis in CHO-cells (ERE-ALP reporter, clone 29 expression vector); assay type: cell-based; set-up: The open reading frame encodes a protein of 485 amino acid residues (counted from the first methionine); expressed in transfected cells; host or cells: CHO-K1 cells transiently transfected with pCMV29 and pERE-ALP; details: for stimulation of transcriptional activity of clone 29 protein: highest concentration tested 1000 nM
Description: The expression vector pCMV29 was constructed by inserting the 2.6 kb clone 29 fragment in the EcoRI site of the expression vector pCMV5 (Andersson, S., Davis, D.L., Dahlbäck, H., Jörnvall, H., & Russell, D.W. (1989) J. Biol. Chem. 264, 8222–8229). The pERE-ALP reporter construct contains a secreted form of the plancental alkaline phosphatase gene (Berger, J., Hauber, J., Hauber, R., Geiger, R., & Cullen, B.R. (1988) Gene 66 1–10) and the MMTV-LTR in which the glucocorticoid response elements were replaced by the vitellogenin promoter estrogen response element (ERE). The vector pCMV29 containing the clone 29 fragment was deposited with NCIMB, Ferguson Building, Craibstone Estate, Bucksburn, Aberdeen, Scotland, UK AB21 9YA in accordance with the Budapest Treaty on the International Recognition of the Deposit of Microorganisms for the Purposes of Patent Procedure on 26 May 2006, under accession No. NCIMB 41404. The deposit was named “Escherichia coli DH5 prat ER (CmV29)”. All restrictions on the availability to the public of the material deposited will be irrevocably removed upon the granting of a patent.
CHO-K1 cells were seeded in 12-well plates at approximately 1.7×10^5 cells per well in phenol-red free Ham F12 medium with 5% FCS (dextran-coated charcoal treated) and 2 mM Lglutamine. After 24 h the cells were transfected with 250 ng pERE-ALP vector and 50 ng pCMV29 using lipofectamine (Gibco) according to the manufacturer's instructions. After five hours of incubation the cells were washed and refed with 0.5 ml phenol-red free Coon's F-12 medium containing 5% serum substitute (SRC 3000, Tissue Culture Services Ltd., Botolph Claydon, Buckingham, UK) 2 mM Lglutamine and 50 μg/ml gentamicin plus hormones as indicated. After 48 h the medium was assayed for alkaline phosphatase (ALP) activity by a chemiluminescence assay. A 10 μl aliquot of the cell culture medium was mixed with 200 μl assay buffer (10 mM diethanolamine pH 10.0 1 mM MgCl2 and 0.5 mM CSPD (Tropix Inc. Boston, USA) ) and incubated for 20 min at 37° C. before measurement in a microplate luminometer (Luminoskan; Labsystems, Finland) with integral measurement for 1 second. The ALP activity of ERE-reporter alone was set at 1.
To investigate the transcriptional regulatory properties of clone 29 protein, we performed co-transfection experiments in which CHO cells were transfected with a clone 29 protein expression vector and/or an estrogen-responsive reporter gene construct. […] CHO-cells were transiently transfected with the ERE-reporter plasmid and the clone 29 protein expression plasmid. […] Alkaline phosphatase activity (ALP) was measured as described and the activity in the absence of ligand (control) was set at 1.

clone 29 protein (rERβ) [2] = molecular target: T1, clone 29 protein (rERβ); test: Ligand competition studies against [3H]E2, clone 29 protein in reticulocyte lysate; assay type: binding; set-up: The open reading frame encodes a protein of 485 amino acid residues (counted from the first methionine); details: for efficient competition with [3H]E2 for binding: 5 nM [3H]E2, highest concentrations used (1000 fold excess); for times less effective as competitor (compared with unlabelled E2): 5 nM [3H]E2, 16 h at 8° C.
Description: Bound and unbound steroids were separated with a dextran-coated charcoal assay (Ekman, P., Barrack, E. R., Greene, G. L., Jensen, E. V., & Walsh, P. C. (1983) J. Clin. Endocrinol Metab. 57, 166–176).

rERβ = molecular target: T2, rERβ (Rattus norvegicus, UniProt Q62986); test: Equilibrium binding saturation experiments with [125I]-E2, rERβ
T2 construct: Clone 29 protein consists of 485 amino acid residues; made in house; host or cells: rabbit reticulocyte lysate in vitro translation (Promega)
Description: Equilibrium binding saturation experiments (Kd-determinations)

T1 sequence (Q62986 46-530): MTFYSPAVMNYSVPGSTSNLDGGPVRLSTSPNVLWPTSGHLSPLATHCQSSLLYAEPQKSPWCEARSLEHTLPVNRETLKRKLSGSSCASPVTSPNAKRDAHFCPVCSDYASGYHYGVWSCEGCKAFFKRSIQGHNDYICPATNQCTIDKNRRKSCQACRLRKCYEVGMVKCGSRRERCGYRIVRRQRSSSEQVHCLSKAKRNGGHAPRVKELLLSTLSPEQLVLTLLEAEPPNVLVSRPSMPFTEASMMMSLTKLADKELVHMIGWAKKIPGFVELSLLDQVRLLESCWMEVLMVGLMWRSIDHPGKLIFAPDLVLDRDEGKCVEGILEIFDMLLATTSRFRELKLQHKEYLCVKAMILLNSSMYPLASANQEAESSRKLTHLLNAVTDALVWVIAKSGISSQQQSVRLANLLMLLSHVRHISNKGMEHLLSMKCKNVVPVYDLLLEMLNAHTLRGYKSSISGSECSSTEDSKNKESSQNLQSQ
T2 sequence (Q62986 46-530): as above

SMILES | stimulation of transcriptional activity of clone 29 protein (clone 29 protein (rERβ) [1]) | efficient competition with [3H]E2 for binding (clone 29 protein (rERβ) [2]) | times less effective as competitor (compared with unlabelled E2) (clone 29 protein (rERβ) [2]) [times] | further results
C[C@]12CC[C@H]3[C@@H](CCC4=CC(=O)CC[C@@]43C)[C@@H]1CC[C@@H]2O [testosterone] | could not stimulate transcriptional activity | Neither testosterone, progesterone, corticosterone nor 5α-androstane-3α,17β-diol were efficient competitors | – | –
C[C@]12CC[C@H](O)C[C@@H]1CC[C@@H]1[C@@H]2CC[C@]2(C)[C@@H](O)CC[C@@H]12 [5α-androstane-3β,17β-diol] | could stimulate transcriptional activity, albeit at higher concentrations | – | – | –
CC(=O)[C@H]1CC[C@H]2[C@@H]3CCC4=CC(=O)CC[C@]4(C)[C@H]3CC[C@]12C [progesterone] | could not stimulate transcriptional activity | Neither testosterone, progesterone, corticosterone nor 5α-androstane-3α,17β-diol were efficient competitors | – | –
CCCCN(C)C(=O)CCCCCCCCCC[C@@H]1Cc2cc(O)ccc2[C@H]2CC[C@]3(C)[C@@H](O)CC[C@H]3[C@H]12 [ICI-1624384] | – | – | – | suppression of the constitutive transcriptional activity of clone 29 protein (clone 29 protein (rERβ) [1]; no E2 added, not shown): could be suppressed
C[C@]12C[C@H](O)[C@H]3[C@@H](CCC4=CC(=O)CC[C@@]43C)[C@@H]1CC[C@@H]2C(=O)CO [corticosterone] | – | Neither testosterone, progesterone, corticosterone nor 5α-androstane-3α,17β-diol were efficient competitors | – | –
C[C@]12CC[C@@H](O)C[C@@H]1CC[C@@H]1[C@@H]2CC[C@]2(C)[C@@H](O)CC[C@@H]12 [5α-androstane-3α,17β-diol] | could not stimulate transcriptional activity | Neither testosterone, progesterone, corticosterone nor 5α-androstane-3α,17β-diol were efficient competitors | 150 | –
CC/C(=C(/CC)c1ccc(O)cc1)c1ccc(O)cc1 [diethylstilbestrol] | – | – | 5 | –
C[C@]12CC[C@@H]3c4ccc(O)cc4CC[C@H]3[C@@H]1C[C@@H](I)[C@@H]2O [[^125I]-E2, 16α[^125I]-17β-estradiol] | – | – | – | Kd (rERβ; read-out: Kd (Hill-plot)): 0.24 nM; Kd (rERβ; read-out: Kd (Scatchard-plot)): 0.42 nM
C[C@]12CC[C@@H]3c4ccc(O)cc4CC[C@H]3[C@@H]1C[C@@H](O)[C@@H]2O [estriol] | – | – | 15 | –
